Data as given in US7932270B2 (Cytokinetics, Inc., priority 2006, dated 2011).

Biological target: T1, chicken gizzard smooth muscle myosin subfragment-1 chemically crosslinked to cardiac or skeletal actin (Gallus gallus, UniProt P10587)
T1 construct: chicken gizzard smooth muscle myosin subfragment-1; from tissue; host or cells: chicken gizzard
Experiment: Smooth muscle myosin ATPase dose response assay (pyruvate kinase/horseradish peroxidase/pyruvate oxidase-coupled, amplex red fluorescence)
Type: biochemical
Settings: read-out: IC50 Arithmetic Mean
Method in brief: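 Chicken gizzard myosin S1 crosslinked to cardiac or skeletal actin, titrated to a set hydrolysis rate; 0.15 mM ATP, 12 mM PIPES pH 7.00, 100 mM KCl, 2 mM MgCl2. Pyruvate kinase/pyruvate oxidase/HRP coupling with amplex red fluorescence; IC50 from 4-parameter fit.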

T1 sequence (P02607 2-151): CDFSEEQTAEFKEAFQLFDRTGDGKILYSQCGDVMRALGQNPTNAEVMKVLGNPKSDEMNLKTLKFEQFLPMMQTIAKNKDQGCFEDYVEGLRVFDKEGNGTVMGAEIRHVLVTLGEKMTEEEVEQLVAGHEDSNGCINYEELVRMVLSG
T1 sequence (P10587 84-789): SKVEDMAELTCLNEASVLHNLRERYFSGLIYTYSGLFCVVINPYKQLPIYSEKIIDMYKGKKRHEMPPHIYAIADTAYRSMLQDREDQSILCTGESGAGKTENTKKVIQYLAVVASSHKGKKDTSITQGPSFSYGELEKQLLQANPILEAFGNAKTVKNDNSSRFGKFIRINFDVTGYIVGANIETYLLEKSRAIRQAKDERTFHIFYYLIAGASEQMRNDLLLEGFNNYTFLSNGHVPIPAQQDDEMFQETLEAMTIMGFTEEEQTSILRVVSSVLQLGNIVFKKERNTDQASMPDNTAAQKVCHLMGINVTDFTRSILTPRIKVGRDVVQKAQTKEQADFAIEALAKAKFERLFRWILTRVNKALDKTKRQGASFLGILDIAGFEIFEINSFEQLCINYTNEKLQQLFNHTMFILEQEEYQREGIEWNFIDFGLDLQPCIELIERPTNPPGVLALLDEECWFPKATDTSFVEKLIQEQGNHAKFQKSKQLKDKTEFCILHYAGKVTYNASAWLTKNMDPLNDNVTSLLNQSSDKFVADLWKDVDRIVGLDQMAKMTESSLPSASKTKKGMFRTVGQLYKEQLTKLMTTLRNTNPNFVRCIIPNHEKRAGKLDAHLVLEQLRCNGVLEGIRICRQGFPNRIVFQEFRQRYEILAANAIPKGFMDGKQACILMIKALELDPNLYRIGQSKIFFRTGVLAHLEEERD

Row | IC50 [nM] | Compound
1 | 139 | O=C(NCc1cccnc1)c1ccc(-c2ccccc2F)nc1NCCc1cccc(F)c1 [(6-(2-fluorophenyl)-2-{[2-(3-fluorophenyl)ethyl]amino}(3-pyridyl))-N-(3-pyridylmethyl)carboxamide]
2 | 5720 | COCc1cccc(-c2ccc(C(=O)NCc3cccnc3)c(NCCc3cccc(F)c3)n2)c1 [(2-{[2-(3-fluorophenyl)ethyl]amino}-6-[3-(methoxymethyl)phenyl](3-pyridyl))-N-(3-pyridylmethyl)carboxamide]
3 | 110 | N#Cc1ccccc1-c1nc(NCCc2cccc(F)c2)c(C(=O)NC[C@H]2CCCN2C(=O)C(O)CO)cc1F (stereo partly drawn) [N-{[(2R)-1-(2,3-dihydroxypropanoyl)pyrrolidin-2-yl]methyl}(6-(2-cyanophenyl)-5-fluoro-2-{[2-(3-fluorophenyl)ethyl]amino}(3-pyridyl))carboxamide]
4 | 109 | N#Cc1ccccc1-c1ccc(C(=O)NC[C@@H]2CCCCN2C(=O)CCN)c(NCCc2cccc(F)c2)n1 [N-{[(2S)-1-(3-aminopropanoyl)(2-piperidyl)]methyl}(6-(2-cyanophenyl)-2-{[2-(3-fluorophenyl)ethyl]amino}(3-pyridyl))carboxamide]
5 | 228 | Cn1cc(-c2ccc(C(=O)NCc3ccnn3CCCN)c(NCCc3cccc(F)c3)n2)cn1 [N-{[1-(3-aminopropyl)pyrazol-5-yl]methyl}(2-{[2-(3-fluorophenyl)ethyl]amino}-6-(1-methylpyrazol-4-yl)(3-pyridyl))carboxamide]
6 | 290 | Cn1cc(-c2ccc(C(=O)NC[C@H]3CCC(=O)N3CCCN)c(NCCc3cccc(F)c3)n2)cn1 [N-{[(2R)-1-(3-aminopropyl)-5-oxopyrrolidin-2-yl]methyl}(2-{[2-(3-fluorophenyl)ethyl]amino}-6-(1-methylpyrazol-4-yl)(3-pyridyl))carboxamide]
7 | 512 | O=C(NCc1cccnc1)c1ccc(-c2ccccc2)nc1NCCc1ccccn1 [{6-phenyl-2-[(2-(2-pyridyl)ethyl)amino](3-pyridyl)}-N-(3-pyridylmethyl)carboxamide]
8 | 40 | Cn1cc(-c2nc(NCCc3cccc(F)c3)c(C(=O)NC[C@H]3CCN3C(=O)CCCN)cc2F)cn1 [N-{[(2R)-1-(4-aminobutanoyl)azetidin-2-yl]methyl}(5-fluoro-2-{[2-(3-fluorophenyl)ethyl]amino}-6-(1-methylpyrazol-4-yl)(3-pyridyl))carboxamide]
9 | 443 | C[C@@H](N)CNC(=O)c1cc(F)c(-c2cn[nH]c2)nc1NCCc1cccc(F)c1 [N-((2R)-2-aminopropyl)(5-fluoro-2-{[2-(3-fluorophenyl)ethyl]amino}-6-pyrazol-4-yl(3-pyridyl))carboxamide]
10 | 193 | COC[C@H](N)C(=O)N1CCC[C@@H]1CNC(=O)c1ccc(-c2ccccc2C#N)nc1NCCc1cccc(F)c1 [N-{[(2R)-1-((2S)-2-amino-3-methoxypropanoyl)pyrrolidin-2-yl]methyl}(6-(2-cyanophenyl)-2-{[2-(3-fluorophenyl)ethyl]amino}(3-pyridyl))carboxamide]
11 | 2110 | N#Cc1ccccc1-c1ccc(C(=O)NCc2ccc(F)cc2)c(NCCc2cccc(F)c2)n1 [(6-(2-cyanophenyl)-2-{[2-(3-fluorophenyl)ethyl]amino}(3-pyridyl))-N-[(4-fluorophenyl)methyl]carboxamide]
12 | 59 | N#Cc1ccccc1-c1ccc(C(=O)NCC2CCCN(CCO)C2=O)c(NCCc2cccc(F)c2)n1 (stereo not shown) [(6-(2-cyanophenyl)-2-{[2-(3-fluorophenyl)ethyl]amino}(3-pyridyl))-N-{[1-(2-hydroxyethyl)-2-oxo(3-piperidyl)]methyl}carboxamide]
13 | 866 | CNC(=O)NCCNC(=O)c1ccc(-c2ccccc2C#N)nc1NCCc1cccc(F)c1 [(6-(2-cyanophenyl)-2-{[2-(3-fluorophenyl)ethyl]amino}(3-pyridyl))-N-{2-[(methylamino)carbonylamino]ethyl}carboxamide]
14 | 1380 | O=C(NCc1cccnc1)c1ccc(-c2ccc(F)cc2Cl)nc1NCCc1cccc(F)c1 [(6-(2-chloro-4-fluorophenyl)-2-{[2-(3-fluorophenyl)ethyl]amino}(3-pyridyl))-N-(3-pyridylmethyl)carboxamide]
15 | 8470 | N#Cc1ccccc1-c1ccc(C(=O)NC[C@@H]2CN(CCN)CC(=O)N2)c(NCCc2cccc(F)c2)n1 [N-{[(2R)-4-(2-aminoethyl)-6-oxopiperazin-2-yl]methyl}(6-(2-cyanophenyl)-2-{[2-(3-fluorophenyl)ethyl]amino}(3-pyridyl))carboxamide]
16 | 59 | C[C@@H](CO)CNC(=O)c1cc(F)c(-c2cn[nH]c2)nc1NCCc1cccc(F)c1 [N-((2R)-3-hydroxy-2-methylpropyl)(5-fluoro-2-{[2-(3-fluorophenyl)ethyl]amino}-6-pyrazol-4-yl(3-pyridyl))carboxamide]
17 | 47 | NCCCC(=O)N1CCC[C@@H]1CNC(=O)c1cc(F)c(-c2cn[nH]c2)nc1NCCc1cccc(F)c1 [N-{[(2R)-1-(4-aminobutanoyl)pyrrolidin-2-yl]methyl}(5-fluoro-2-{[2-(3-fluorophenyl)ethyl]amino}-6-pyrazol-4-yl(3-pyridyl))carboxamide]
18 | 22100 | O=C(NCc1cccnc1)c1ccc(-c2ccccc2)nc1NCCN1CCCCC1=O [(2-{[2-(2-oxopiperidyl)ethyl]amino}-6-phenyl(3-pyridyl))-N-(3-pyridylmethyl)carboxamide]
19 | 152 | C[C@H](CNC(=O)c1ccc(-c2ccccc2C#N)nc1NCCc1cccc(F)c1)N(C)C(=O)CN
20 | 18 | NCCCNc1cccc(CNC(=O)c2ccc(-c3cn[nH]c3)nc2NCCc2cccc(F)c2)n1 [N-({6-[(3-aminopropyl)amino](2-pyridyl)}methyl)(2-{[2-(3-fluorophenyl)ethyl]amino}-6-pyrazol-4-yl(3-pyridyl))carboxamide]
21 | 1330 | C[C@H](CNC(=O)c1ccc(-c2ccccc2C#N)nc1NCCc1cccc(F)c1)NS(C)(=O)=O [N-{(2R)-2-[(methylsulfonyl)amino]propyl}(6-(2-cyanophenyl)-2-{[2-(3-fluorophenyl)ethyl]amino}(3-pyridyl))carboxamide]
22 | 318 | N#Cc1ccccc1-c1nc(NCCc2cccc(F)c2)c(C(=O)NCc2cccnc2)cc1C#N [(5-cyano-6-(2-cyanophenyl)-2-{[2-(3-fluorophenyl)ethyl]amino}(3-pyridyl))-N-(3-pyridylmethyl)carboxamide]
23 | 31 | Cn1cc(-c2ccc(C(=O)NCc3cc[nH]n3)c(NCCc3cccc(F)c3)n2)cn1 [(2-{[2-(3-fluorophenyl)ethyl]amino}-6-(1-methylpyrazol-4-yl)(3-pyridyl))-N-(pyrazol-3-ylmethyl)carboxamide]
24 | 1260 | N#Cc1ccccc1-c1ccc(C(=O)NC[C@@H]2CCCN(C(=O)CCN)C2)c(NCCc2cccc(F)c2)n1 [N-{[(3S)-1-(3-aminopropanoyl)(3-piperidyl)]methyl}(6-(2-cyanophenyl)-2-{[2-(3-fluorophenyl)ethyl]amino}(3-pyridyl))carboxamide]
25 | 78100 | O=C(NCc1cccnc1)c1ccc(-c2nnn[nH]2)nc1NCCc1cccc(F)c1 [(6-(1H-1,2,3,4-tetraazol-5-yl)-2-{[2-(3-fluorophenyl)ethyl]amino}(3-pyridyl))-N-(3-pyridylmethyl)carboxamide]
26 | 39 | O=C(NCc1cccc(NCCO)n1)c1ccc(-c2cn[nH]c2)nc1NCCc1cccc(F)c1 [(2-{[2-(3-fluorophenyl)ethyl]amino}-6-pyrazol-4-yl(3-pyridyl))-N-({6-[(2-hydroxyethyl)amino](2-pyridyl)}methyl)carboxamide]
27 | 627 | N#Cc1ccccc1-c1ccc(C(=O)NCCCC(=O)O)c(NCCc2cccc(F)c2)n1 [4-[(6-(2-cyanophenyl)-2-{[2-(3-fluorophenyl)ethyl]amino}-3-pyridyl)carbonylamino]butanoic acid]
28 | 16400 | N#CCc1ccccc1-c1ccc(C(=O)NCc2cccnc2)c(NCCc2cccc(F)c2)n1 [(6-[2-(cyanomethyl)phenyl]-2-{[2-(3-fluorophenyl)ethyl]amino}(3-pyridyl))-N-(3-pyridylmethyl)carboxamide]
29 | 713 | COC(=O)CCCNC(=O)c1ccc(-c2ccccc2C#N)nc1NCCc1cccc(F)c1 [methyl 4-[(6-(2-cyanophenyl)-2-{[2-(3-fluorophenyl)ethyl]amino}-3-pyridyl)carbonylamino]butanoate]
30 | 5700 | N#Cc1ccccc1-c1ccc(C(=O)NC[C@@H](COC(=O)CN)NC(=O)CN)c(NCCc2cccc(F)c2)n1 [(2S)-2-(2-aminoacetylamino)-3-[(6-(2-cyanophenyl)-2-{[2-(3-fluorophenyl)ethyl]amino}(3-pyridyl))carbonylamino]propyl 2-aminoacetate]

Row | Compound | IC50 [nM]
31 | CC(C)(C)OC(=O)NCc1ncccc1CNC(=O)c1ccc(-c2ccccc2C#N)nc1NCCc1cccc(F)c1 [N-[(2-{[(tert-butoxy)carbonylamino]methyl}(3-pyridyl))methyl](6-(2-cyanophenyl)-2-{[2-(3-fluorophenyl)ethyl]amino}(3-pyridyl))carboxamide] | 1210
32 | CC(C)(C)OC(=O)NCCn1ccc(CNC(=O)c2ccc(-c3cc[nH]n3)nc2NCCc2cccc(F)c2)n1 [N-[(1-{2-[(tert-butoxy)carbonylamino]ethyl}pyrazol-3-yl)methyl](2-{[2-(3-fluorophenyl)ethyl]amino}-6-pyrazol-3-yl(3-pyridyl))carboxamide] | 12000
33 | CC(C)(C)OC(=O)NCCCNC(=O)CNC(=O)c1ccc(-c2ccccc2C#N)nc1NCCc1cccc(F)c1 [N-{3-[(tert-butoxy)carbonylamino]propyl}-2-[(6-(2-cyanophenyl)-2-{[2-(3-fluorophenyl)ethyl]amino}(3-pyridyl))carbonylamino]acetamide] | 9880
34 | Cn1cc(-c2nc(NCCc3cccc(F)c3)c(C(=O)NC[C@H]3CCCN3C(=O)CCCNC(=O)OC(C)(C)C)cc2F)cn1 [N-[((2R)-1-{4-[(tert-butoxy)carbonylamino]butanoyl}pyrrolidin-2-yl)methyl](5-fluoro-2-{[2-(3-fluorophenyl)ethyl]amino}-6-(1-methylpyrazol-4-yl)(3-pyridyl))carboxamide] | 483
